Data reported in PubChem BioAssay AID1259407 (Chemical Carcinogenesis Research Information System (CCRIS), 2018).
Activity calls are given as the source filed them. The rule behind the calls is not given here.

System: CCRIS mutagenicity, Ames/micronucleus/aberration tests
Assay: CCRIS mutagenicity studies
[1] = Test System: AMES SALMONELLA TYPHIMURIUM, Strain/Indicator: TA98, Metabolic Activation: HAMSTER, LIVER, S-9, AROCLOR 1254, Method: STANDARD PLATE
[2] = Test System: AMES SALMONELLA TYPHIMURIUM, Strain/Indicator: TA98, Metabolic Activation: NONE, Method: STANDARD PLATE
[3] = Test System: AMES SALMONELLA TYPHIMURIUM, Strain/Indicator: TA98, Metabolic Activation: RAT, LIVER, S-9, AROCLOR 1254, Method: STANDARD PLATE
[4] = Test System: AMES SALMONELLA TYPHIMURIUM, Strain/Indicator: TA100, Metabolic Activation: HAMSTER, LIVER, S-9, AROCLOR 1254, Method: STANDARD PLATE
[5] = Test System: AMES SALMONELLA TYPHIMURIUM, Strain/Indicator: TA100, Metabolic Activation: NONE, Method: STANDARD PLATE
[6] = Test System: AMES SALMONELLA TYPHIMURIUM, Strain/Indicator: TA100, Metabolic Activation: RAT, LIVER, S-9, AROCLOR 1254, Method: STANDARD PLATE
[7] = Test System: AMES SALMONELLA TYPHIMURIUM, Strain/Indicator: TA1535, Metabolic Activation: HAMSTER, LIVER, S-9, AROCLOR 1254, Method: STANDARD PLATE
[8] = Test System: AMES SALMONELLA TYPHIMURIUM, Strain/Indicator: TA1535, Metabolic Activation: NONE, Method: STANDARD PLATE
[9] = Test System: AMES SALMONELLA TYPHIMURIUM, Strain/Indicator: TA1535, Metabolic Activation: RAT, LIVER, S-9, AROCLOR 1254, Method: STANDARD PLATE
[10] = Test System: AMES SALMONELLA TYPHIMURIUM, Strain/Indicator: TA1537, Metabolic Activation: HAMSTER, LIVER, S-9, AROCLOR 1254, Method: STANDARD PLATE
[11] = Test System: AMES SALMONELLA TYPHIMURIUM, Strain/Indicator: TA1537, Metabolic Activation: NONE, Method: STANDARD PLATE
[12] = Test System: AMES SALMONELLA TYPHIMURIUM, Strain/Indicator: TA1537, Metabolic Activation: RAT, LIVER, S-9, AROCLOR 1254, Method: STANDARD PLATE
[13] = Test System: AMES SALMONELLA TYPHIMURIUM, Strain/Indicator: TA1538, Metabolic Activation: HAMSTER, LIVER, S-9, AROCLOR 1254, Method: STANDARD PLATE
[14] = Test System: AMES SALMONELLA TYPHIMURIUM, Strain/Indicator: TA1538, Metabolic Activation: NONE, Method: STANDARD PLATE
[15] = Test System: AMES SALMONELLA TYPHIMURIUM, Strain/Indicator: TA1538, Metabolic Activation: RAT, LIVER, S-9, AROCLOR 1254, Method: STANDARD PLATE
[16] = Test System: MOUSE LYMPHOMA, Strain/Indicator: L5178Y (TK+/TK-), Metabolic Activation: NONE, Method: SUSPENSION/PLATE
[17] = Test System: MOUSE LYMPHOMA, Strain/Indicator: L5178Y (TK+/TK-), Metabolic Activation: RAT, LIVER, S-9, AROCLOR 1254, Method: SUSPENSION/PLATE

Row | SMILES | mutagenic call [1] | mutagenic call [2] | mutagenic call [3] | mutagenic call [4] | mutagenic call [5] | mutagenic call [6] | mutagenic call [7] | mutagenic call [8] | mutagenic call [9] | mutagenic call [10] | mutagenic call [11] | mutagenic call [12] | mutagenic call [13] | mutagenic call [14] | mutagenic call [15] | mutagenic call [16] | mutagenic call [17] | also measured
1 | CC/C(C)=N\O | inactive; negative | inactive; negative | inactive; negative | inactive; negative | inactive; negative | inactive; negative | inactive; negative | inactive; negative | inactive; negative | inactive; negative | inactive; negative | inactive; negative | inactive; negative | inactive; negative | inactive; negative | active; positive. reevaluation of results: positive | inactive; negative. reevaluation of results: negative | mutagenic call (Test System: AMES SALMONELLA TYPHIMURIUM, Strain/Indicator: TA97, Metabolic Activation: HAMSTER LIVER S-9, AROCLOR 1254, 30%, Method: PREINCUBATION): inactive; negative; mutagenic call (Test System: AMES SALMONELLA TYPHIMURIUM, Strain/Indicator: TA97, Metabolic Activation: NONE, Method: PREINCUBATION): inactive; negative; mutagenic call (Test System: AMES SALMONELLA TYPHIMURIUM, Strain/Indicator: TA97, Metabolic Activation: RAT LIVER S-9, AROCLOR 1254, 30%, Method: PREINCUBATION): inactive; negative; mutagenic call (Test System: AMES SALMONELLA TYPHIMURIUM, Strain/Indicator: TA98, Metabolic Activation: HAMSTER LIVER S-9, AROCLOR 1254, 30%, Method: DESICCATOR): inactive; negative; mutagenic call (Test System: AMES SALMONELLA TYPHIMURIUM, Strain/Indicator: TA98, Metabolic Activation: HAMSTER LIVER S-9, AROCLOR 1254, 30%, Method: PREINCUBATION): inactive; negative; mutagenic call (Test System: AMES SALMONELLA TYPHIMURIUM, Strain/Indicator: TA98, Metabolic Activation: NONE, Method: DESICCATOR): inactive; negative; mutagenic call (Test System: AMES SALMONELLA TYPHIMURIUM, Strain/Indicator: TA98, Metabolic Activation: NONE, Method: PREINCUBATION): inactive; negative; mutagenic call (Test System: AMES SALMONELLA TYPHIMURIUM, Strain/Indicator: TA98, Metabolic Activation: RAT LIVER S-9, AROCLOR 1254, 30%, Method: DESICCATOR): inactive; negative; mutagenic call (Test System: AMES SALMONELLA TYPHIMURIUM, Strain/Indicator: TA98, Metabolic Activation: RAT LIVER S-9, AROCLOR 1254, 30%, Method: PREINCUBATION): inactive; negative; mutagenic call (Test System: AMES SALMONELLA TYPHIMURIUM, Strain/Indicator: TA100, Metabolic Activation: HAMSTER LIVER S-9, AROCLOR 1254, 30%, Method: DESICCATOR): inactive; negative; mutagenic call (Test System: AMES SALMONELLA TYPHIMURIUM, Strain/Indicator: TA100, Metabolic Activation: HAMSTER LIVER S-9, AROCLOR 1254, 30%, Method: PREINCUBATION): inactive; negative; mutagenic call (Test System: AMES SALMONELLA TYPHIMURIUM, Strain/Indicator: TA100, Metabolic Activation: NONE, Method: DESICCATOR): inactive; negative; mutagenic call (Test System: AMES SALMONELLA TYPHIMURIUM, Strain/Indicator: TA100, Metabolic Activation: NONE, Method: PREINCUBATION): inactive; negative; mutagenic call (Test System: AMES SALMONELLA TYPHIMURIUM, Strain/Indicator: TA100, Metabolic Activation: RAT LIVER S-9, AROCLOR 1254, 30%, Method: DESICCATOR): inactive; negative; mutagenic call (Test System: AMES SALMONELLA TYPHIMURIUM, Strain/Indicator: TA100, Metabolic Activation: RAT LIVER S-9, AROCLOR 1254, 30%, Method: PREINCUBATION): inactive; negative; mutagenic call (Test System: AMES SALMONELLA TYPHIMURIUM, Strain/Indicator: TA1535, Metabolic Activation: HAMSTER LIVER S-9, AROCLOR 1254, 30%, Method: PREINCUBATION): active; positive; mutagenic call (Test System: AMES SALMONELLA TYPHIMURIUM, Strain/Indicator: TA1535, Metabolic Activation: NONE, Method: PREINCUBATION): inactive; negative; mutagenic call (Test System: AMES SALMONELLA TYPHIMURIUM, Strain/Indicator: TA1535, Metabolic Activation: RAT LIVER S-9, AROCLOR 1254, 30%, Method: PREINCUBATION): inactive; negative
2 | CCOCC=O | – | inactive; negative | inactive; negative | – | inactive; negative | inactive; negative | – | – | – | – | – | – | – | – | – | – | – | mutagenic call (Test System: AMES SALMONELLA TYPHIMURIUM, Strain/Indicator: TA97A, Metabolic Activation: NONE, Method: STANDARD PLATE): inactive; negative; mutagenic call (Test System: AMES SALMONELLA TYPHIMURIUM, Strain/Indicator: TA97A, Metabolic Activation: RAT, LIVER, S-9, AROCLOR 1254, Method: STANDARD PLATE): inactive; negative; mutagenic call (Test System: AMES SALMONELLA TYPHIMURIUM, Strain/Indicator: TA102, Metabolic Activation: NONE, Method: STANDARD PLATE): inactive; negative; mutagenic call (Test System: AMES SALMONELLA TYPHIMURIUM, Strain/Indicator: TA102, Metabolic Activation: RAT, LIVER, S-9, AROCLOR 1254, Method: STANDARD PLATE): inactive; negative
3 | O=[N+]([O-])c1cc2c([nH]c3ccccc32)c([N+](=O)[O-])c1O | – | active; positive | active; positive | – | – | – | – | – | – | – | – | – | – | – | – | – | – | mutagenic call (Test System: AMES SALMONELLA TYPHIMURIUM, Strain/Indicator: TA98(NR), Metabolic Activation: NONE, Method: STANDARD PLATE): active; positive; mutagenic call (Test System: AMES SALMONELLA TYPHIMURIUM, Strain/Indicator: TA98(NR), Metabolic Activation: RAT, LIVER, S-9, AROCLOR 1254, Method: STANDARD PLATE): active; positive
4 | CC[C@H](C)[C@@H]([C@@H](CC(=O)N1CCC[C@H]1[C@H](OC)[C@@H](C)C(=O)N[C@@H](Cc1ccccc1)c1nccs1)OC)N(C)C(=O)[C@@H](NC(=O)[C@H](C(C)C)N(C)C)C(C)C | inactive; negative | inactive; negative | inactive; negative | inactive; negative | inactive; negative | inactive; negative | inactive; negative | inactive; negative | inactive; negative | inactive; negative | inactive; negative | inactive; negative | inactive; negative | inactive; negative | inactive; negative | active; positive. reevaluation of results: inconclusive | inactive; negative. reevaluation of results: negative | –
5 | CC(=O)c1ccc(N=O)cc1 | – | active; positive | active; positive | – | active; positive | inactive; negative | – | – | – | – | – | – | – | – | – | – | – | –
6 | Cc1cnc2c(ccc3c2nc(N)n3C)n1 | – | – | active; positive | – | – | – | – | – | – | – | – | – | – | – | – | – | – | mutagenic call (Test System: AMES SALMONELLA TYPHIMURIUM, Strain/Indicator: TA98, Metabolic Activation: RAT, LIVER, S-9, AROCLOR 1254, Method: PREINCUBATION): active; positive
